Results: patent publication US11274332B2, “Methods of administering 3,4-diaminopyridine” (SERB SA, priority 2011, dated 2022)

Target: T1, cloned human Kv1.4 potassium channel (Homo sapiens, UniProt P22459)
T1 construct: expressed in transfected cells
Assay: PatchXpress inhibition of cloned human Kv1.4 in HEK293 cells (Example 6)
Type: cell-based
Conditions: hKv1.4, up to 3000 μM
Source text: The objective of this study was to examine the in vitro effects and determine the […] of 3,4-DAP phosphate and the metabolite N-(4-aminopyridin-3-yl) acetamide HCl on the following ion channels: cloned human Kv1.1 potassium channel (encoded by the human KCNA1 gene, expressed in HEK293 cells), cloned human Kv1.2 potassium channel (encoded by the human KCNA2 gene, expressed in HEK293 cells), cloned human Kv1.3 potassium channel (encoded by the human KCNA3 gene, expressed in CHO cells), cloned human Kv1.4 potassium channel (encoded by the human KCNA4 gene, expressed in HEK293 cells), cloned human Kv1.5 potassium channel (encoded by the human KCNA5 gene and expressed in CHO cells), responsible for IKur, ultra-rapid delayed rectifier potassium current.
Chemicals used in solution preparation were purchased from Sigma-Aldrich (St. Louis, Mo.), unless otherwise noted, and were of ACS reagent grade purity or higher. Stock solutions of each test article (100 mM, 30 mM and 1.00 mM 3,4-DAP phosphate and 100 mM N-(4-aminopyridin-3-yl)acetamide) were prepared in sterile water and stored refrigerated. […]
In preparation for a recording session, intracellular solution was loaded into the intracellular compartments of the Sealchip16. […] After establishment of a whole-cell configuration, membrane currents were recorded using dual-channel patch clamp amplifiers in the PatchXpress®. […]

T1 sequence (P22459 whole entry): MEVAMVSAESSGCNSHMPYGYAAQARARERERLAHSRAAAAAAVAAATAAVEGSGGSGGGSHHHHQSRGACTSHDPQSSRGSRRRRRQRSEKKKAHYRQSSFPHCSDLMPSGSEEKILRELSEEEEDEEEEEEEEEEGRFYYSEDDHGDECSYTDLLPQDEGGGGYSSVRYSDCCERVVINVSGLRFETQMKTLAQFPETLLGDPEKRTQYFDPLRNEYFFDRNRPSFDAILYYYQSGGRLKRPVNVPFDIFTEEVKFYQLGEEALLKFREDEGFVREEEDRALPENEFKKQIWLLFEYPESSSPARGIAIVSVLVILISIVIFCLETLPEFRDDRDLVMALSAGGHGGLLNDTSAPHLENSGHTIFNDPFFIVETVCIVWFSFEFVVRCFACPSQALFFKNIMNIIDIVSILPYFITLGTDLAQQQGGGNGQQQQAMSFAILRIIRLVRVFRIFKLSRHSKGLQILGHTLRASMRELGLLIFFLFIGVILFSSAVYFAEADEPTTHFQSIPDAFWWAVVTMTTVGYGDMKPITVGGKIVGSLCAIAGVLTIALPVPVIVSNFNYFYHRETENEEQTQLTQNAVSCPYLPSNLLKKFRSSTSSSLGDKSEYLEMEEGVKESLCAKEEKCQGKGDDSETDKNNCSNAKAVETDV

Q: With `CC(=O)Nc1cnccc1N` [3-N-acetyl amifampridine, N-(4-aminopyridin-3-yl)acetamide] as the compound, how does the “activity on K+ channel” value read?
A: inactive

Q: What about the “activity on K+ channel” value (listed as N-acetyl metabolite) of the same compound?
A: not active
